Laboratory results: US7947285B2, “Methods for preventing post endoscopic retrograde cholangiopancreatography pancreatitis” (priority 2003, dated 2011)
Where no end group is shown, it is not given here.

Test system: patients undergoing ERCP
Assay: Pain, nausea and vomiting scores pre and post ERCP (0-10 scale)
Type: in vivo, human
Description: Incidence of post-ERCP pancreatitis (sPS vs. placebo) was evaluated as the primary efficacy variable in this study. Secondary efficacy variables included incidences of post-ERCP pancreatitis in the following sub-populations: (1) cannulation of CBD; (2) sphincterotomy of CBD; (3) cannulation of pancreatic duct; (4) sphincterotomy of pancreatic duct; (5) stent insertion and removal into CBD; (6) stent insertion and removal into pancreatic duct; (7) stone extraction (basket) from CBD; (8) stone extraction (balloon) from CBD; (9) manometry of CBD; (10) manometry of pancreatic duct; (11) pain scores pre and post ERCP (0-10 scale); (12) nausea scores pre and post ERCP (0-10 scale); (13) vomiting scores pre and post ERCP (0-10 scale); (14) return to baseline activity (pre-ERCP); and (15) return to work.
Primary and secondary efficacy variables were compared between the treatment groups using the Fisher Exact Test or Cochran-Mantel Haenszel Association Test. Adverse events and vital signs (heart rate, blood pressure) were compared between the treatment groups using the t-test. The clinical assumption on which the power calculation is based was on incidence of post-ERCP pancreatitis among all patients without pancreas divisum of 6%. In order to show a 50% reduction in the rate of post-ERCP pancreatitis with a significance of p=0.05, at a power of 80%, 749 evaluable patients per treatment group (sPS vs. placebo) were needed.
Additional secondary efficacy analyses were performed on post-ERCP pain, nausea, and vomiting using a 0 to 10 digital scale. There were no significant differences between the treatment groups for baseline (pre procedure) pain, nausea and vomiting. There were also no significant differences in these variables post-ERCP although there was a slight numerical trend indicating less nausea for sPS ([…]).

synthetic porcine secretin (HSDGTFTSELSRLRDSARLQRLLQGLV-NH2; ends and bridges not checked; UniProt P63298 33-59, looked up) [SPS, synthetic form of porcine secretin, a 27 amino acid gastrointestinal peptide hormone]
Nausea post-ERCP, Mean (SD) (N = 485): 0.9 (2.1) (N = 485) | Pain Post-ERCP, Mean (SD) (N = 485): 1.8 (3.0) (N = 485) | Vomiting post-ERCP, Mean (SD) (N = 485): 0.6 (1.9) (N = 485) | Vomiting pre-ERCP, Mean (SD) (baseline, N = 482): 0.1 (0.8) (N = 482) | Nausea Pre-ERCP, Mean (SD) (baseline, N = 483): 0.6 (1.7) (N = 483) | Pain Pre-ERCP, Mean (SD) (baseline, N = 483): 1.4 (0.6) (N = 483) | Change in Vomiting, Mean (SD) (pre to post ERCP, N = 479, p 0.0776): 0.5 (2.0) (N = 479) | Change in Nausea, Mean (SD) (pre to post ERCP, N = 480, p 0.0284): 0.3 (2.5) (N = 480) | Change in Pain, Mean (SD) (pre to post ERCP, N = 480, p 0.0668): 0.4 (3.4) (N = 480)
